{
  "source": "paper PMC6934184",
  "about": "“Selective DNA-PKcs inhibition extends the therapeutic index of localized radiotherapy and chemotherapy” (The Journal of Clinical Investigation, 2019)",
  "biological_target": "T1, NEK4 (Homo sapiens, UniProt P51957)",
  "T1 construct": "purchased Thermo Fisher Scientific (Life Technologies) SelectScreen",
  "T1 sequence (P51957 whole entry)": "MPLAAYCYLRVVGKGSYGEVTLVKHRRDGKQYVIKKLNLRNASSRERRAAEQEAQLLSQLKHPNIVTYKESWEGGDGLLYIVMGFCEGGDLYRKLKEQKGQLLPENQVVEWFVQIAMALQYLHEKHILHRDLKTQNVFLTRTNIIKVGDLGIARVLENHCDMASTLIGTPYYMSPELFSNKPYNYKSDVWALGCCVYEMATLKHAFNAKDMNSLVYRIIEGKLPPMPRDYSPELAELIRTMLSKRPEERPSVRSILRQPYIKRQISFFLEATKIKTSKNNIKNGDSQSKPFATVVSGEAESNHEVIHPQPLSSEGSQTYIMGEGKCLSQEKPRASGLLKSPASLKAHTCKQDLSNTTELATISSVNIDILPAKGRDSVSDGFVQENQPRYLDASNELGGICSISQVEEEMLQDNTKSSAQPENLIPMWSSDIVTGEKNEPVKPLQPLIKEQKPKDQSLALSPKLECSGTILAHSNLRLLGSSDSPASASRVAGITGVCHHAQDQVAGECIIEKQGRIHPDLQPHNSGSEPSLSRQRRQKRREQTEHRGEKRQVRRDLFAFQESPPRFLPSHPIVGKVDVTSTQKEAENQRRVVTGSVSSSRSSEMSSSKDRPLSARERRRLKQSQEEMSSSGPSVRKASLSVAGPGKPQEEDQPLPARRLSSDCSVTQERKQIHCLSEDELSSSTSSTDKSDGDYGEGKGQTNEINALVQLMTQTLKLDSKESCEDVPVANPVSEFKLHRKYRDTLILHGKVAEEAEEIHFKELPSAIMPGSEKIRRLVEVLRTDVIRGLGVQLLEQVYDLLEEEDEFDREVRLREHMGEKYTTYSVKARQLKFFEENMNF",
  "assay": "SelectScreen Z'LYTE",
  "type": "biochemical",
  "procedure,_shortened": "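NU5455 was profiled across the SelectScreen Broad panel of kinase activity and binding assays. Z'LYTE reactions such as CSF1R ran at apparent Km ATP, while the Adapta CAMK1 assay used ATP listed as 10. Values are given as percent.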",
  "data": [
    {"smiles": "CN(C(=O)CN1CCOCC1)c1ccc2sc3c(-c4cccc5c(=O)cc(N6CC7CCC(C6)O7)oc45)cccc3c2c1", "note": "[NU5455]", "values": [
      {"measurement": "inhibition at 1 µM", "result": -11.6, "unit": "%"}
    ]}
  ]
}
